Test results as given in the NIST ThermoML archive (doi:10.1016/j.tca.2011.06.003).

Assay: xn = mol fraction of the nth substance listed
Conditions: 101 kPa, Liquid; for speed of sound: Sing-around technique in a fixed-path interferometer; for mass density: Vibrating tube method

NCCNCCN [di(2-aminoethyl)amine] + CCCCO
Conditions	mass density [kg/m3]	speed of sound [m/s]	viscosity [mPa·s]
293.15 K, x1 = 0.0517	821.995	1288	–
293.15 K, x1 = 0.1085	834.306	1319.9	–
293.15 K, x1 = 0.153	843.084	1343.3	–
293.15 K, x1 = 0.2024	852.085	1369.5	–
293.15 K, x1 = 0.2524	860.585	1393.7	–
293.15 K, x1 = 0.3079	869.265	1419.6	–
293.15 K, x1 = 0.4082	883.406	1464.1	–
293.15 K, x1 = 0.5013	895.464	1502.4	–
293.15 K, x1 = 0.6067	908.152	1543.5	–
293.15 K, x1 = 0.7079	919.755	1581.6	–
293.15 K, x1 = 0.8	929.638	1616.5	–
293.15 K, x1 = 0.8548	935.634	1637	–
293.15 K, x1 = 0.9075	941.042	1656.6	–
293.15 K, x1 = 0.9525	945.451	1673.3	–
298.15 K, x1 = 0.0517	818.115	1271	3.066
298.15 K, x1 = 0.1085	830.363	1302.9	3.551
298.15 K, x1 = 0.153	839.101	1327.1	3.907
298.15 K, x1 = 0.2024	848.068	1351.9	4.256
298.15 K, x1 = 0.2524	856.54	1376.5	4.526
298.15 K, x1 = 0.3079	865.207	1402.5	4.772
298.15 K, x1 = 0.4082	879.335	1446.5	5.076
298.15 K, x1 = 0.5013	891.374	1484.6	5.214
298.15 K, x1 = 0.6067	904.038	1525.4	5.317
298.15 K, x1 = 0.7079	915.617	1562.9	5.331
298.15 K, x1 = 0.8	925.474	1597.5	5.368
298.15 K, x1 = 0.8548	931.448	1617.8	5.433
298.15 K, x1 = 0.9075	936.842	1637.4	5.485
298.15 K, x1 = 0.9525	941.233	1653.8	5.562
303.15 K, x1 = 0.0517	814.209	1254.2	2.576
303.15 K, x1 = 0.1085	826.401	1285.9	3.027
303.15 K, x1 = 0.153	835.096	1309.9	3.256
303.15 K, x1 = 0.2024	844.036	1335.1	3.52
303.15 K, x1 = 0.2524	852.484	1359.6	3.768
303.15 K, x1 = 0.3079	861.136	1385.5	3.919
303.15 K, x1 = 0.4082	875.244	1429.3	4.169
303.15 K, x1 = 0.5013	887.28	1467.1	4.262
303.15 K, x1 = 0.6067	899.921	1507.7	4.302
303.15 K, x1 = 0.7079	911.479	1545.1	4.323
303.15 K, x1 = 0.8	921.305	1579.2	4.335
303.15 K, x1 = 0.8548	927.266	1598.6	4.346
303.15 K, x1 = 0.9075	932.668	1617.5	4.366
303.15 K, x1 = 0.9525	937.017	1633.6	4.422
308.15 K, x1 = 0.0517	810.286	1237.4	2.27
308.15 K, x1 = 0.1085	822.424	1269.3	2.622
308.15 K, x1 = 0.153	831.084	1293.2	2.81
308.15 K, x1 = 0.2024	839.988	1318.5	3.027
308.15 K, x1 = 0.2524	848.419	1343	3.198
308.15 K, x1 = 0.3079	857.059	1368.6	3.341
308.15 K, x1 = 0.4082	871.155	1412.2	3.524
308.15 K, x1 = 0.5013	883.174	1450.2	3.617
308.15 K, x1 = 0.6067	895.798	1490	3.642
308.15 K, x1 = 0.7079	907.33	1527.2	3.671
308.15 K, x1 = 0.8	917.129	1560.9	3.689
308.15 K, x1 = 0.8548	923.082	1580.1	3.712
308.15 K, x1 = 0.9075	928.432	1598.6	3.731
308.15 K, x1 = 0.9525	932.798	1614.5	3.771
313.15 K, x1 = 0.0517	806.326	1220.9	–
313.15 K, x1 = 0.1085	818.415	1253.3	–
313.15 K, x1 = 0.153	827.042	1277.3	–
313.15 K, x1 = 0.2024	835.917	1302.4	–
313.15 K, x1 = 0.2524	844.331	1327.4	–
313.15 K, x1 = 0.3079	852.959	1352.7	–
313.15 K, x1 = 0.4082	867.047	1396.2	–
313.15 K, x1 = 0.5013	879.057	1433.9	–
313.15 K, x1 = 0.6067	891.664	1473.9	–
313.15 K, x1 = 0.7079	903.173	1510.5	–
313.15 K, x1 = 0.8	912.964	1543.6	–
313.15 K, x1 = 0.8548	918.81	1563	–
313.15 K, x1 = 0.9075	924.23	1580.1	–
313.15 K, x1 = 0.9525	928.584	1594.8	–
